How the values were obtained:
[1] = Inhibition of bovine Phosphatidylinositol 3-kinase; parameters: species or system Bos taurus
Gallus gallus = organism: Gallus gallus; experiment: Compound was evaluated for inhibitory activity against bone resorption in avian osteoclast

IC50 [1] [nM]	IC50 (Gallus gallus) [nM]	Structure (SMILES)
4600	> 1000	COC(=O)c1coc2c(O)c3c(c(C)c12)C=C[C@]1(C)C(=O)CC[C@@H]31
16.7	506	COC[C@H]1OC(=O)c2coc3c2[C@@]1(C)C1=C(C3=O)[C@@H]2CCC(=O)[C@@]2(C)CC1
> 500	> 1000	COC[C@H]1OC(=O)c2c(C)oc3c2[C@@]1(C)C1=C(C3=O)[C@@H]2CCC(=O)[C@@]2(C)C[C@H]1OC(C)=O
> 32000	> 1000	Cc1c2c(c(O)c3occ(C(=O)O)c13)C1CCC(=O)[C@@]1(C)C=C2 (stereo partly drawn)
> 50000	100	NCCCC(O)(P(=O)(O)O)P(=O)(O)O [ALENDRONIC ACID]
> 50000	100000	CC(O)(P(=O)(O)O)P(=O)(O)O [ETIDRONIC ACID]

Structure (SMILES)	IC50 [1] [nM]	IC50 (Gallus gallus) [nM]
COC[C@H]1OC(=O)c2coc3c2[C@@]1(C)C1=CC[C@]2(C)C(=O)CC[C@H]2C1C3=O (stereo partly drawn)	54	
COC[C@H]1OC(=O)c2coc3c2[C@@]1(C)C1=C(C3=O)[C@@H]2CC[C@H](O)[C@@]2(C)C[C@H]1OC(C)=O	0.5	10
COC[C@H]1OC(=O)c2coc3c2[C@@]1(C)C1=C(C3=O)C2CCC(O)[C@@]2(C)CC1 (stereo partly drawn)		103
COC[C@H]1OC(=O)c2coc3c2[C@@]1(C)C1=C(C3=O)[C@@H]2CCC(=O)[C@@]2(C)C[C@H]1OC(C)=O [WORTMANNIN]	4.2	98
